The values that follow come from PubChem BioAssay (NCI).

Some test systems named below: DU-145 prostate; SF-268 CNS; NCI-H226 lung; NCI-H460 lung; MDA-MB-231 breast; K-562 leukemia; IGROV1 ovarian; HOP-62 NSCLC; MALME-3M melanoma; NCI-H522 lung; OVCAR-5 ovarian; ACHN renal; T-47D breast; HCC-2998 colon; SNB-19 CNS; 786-0 renal; UO-31 renal; SNB-75 CNS; RPMI-8226 leukemia; U251 CNS; HT29 colon; SF-539 CNS; PC-3 prostate; EKVX NSCLC; MOLT-4 leukemia; UACC-257 melanoma; HL-60(TB) leukemia; MDA-MB-435; KM12 colon; M14 melanoma; SR leukemia; SF-295 CNS; CAKI-1 renal; HOP-92 NSCLC; A549 NSCLC; SW-620 colon; OVCAR-4 ovarian; HCT-15 colon; NCI-H23 lung; OVCAR-8 ovarian; OVCAR-3 ovarian; SK-MEL-5 melanoma; MCF7 breast; SN12C renal; MDA-MB-468 breast.

Assay in all cases: NCI-60 cell line screen, 48 h

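A five-concentration, 48-hour dose response in 96-well plates underlies each endpoint, interpolated linearly between surrounding concentrations. GI50 marks 50% less growth. TGI denotes the concentration required for complete inhibition of growth.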 *1 amine or outer side, *2 acyl side, *3 side chain or, on linkers, in order; H or OH if unused. Where a SMILES comes first, the peptide text is derived from it. Bridges are numbered along the chain shown (N, C = ends). [ ]: non-standard residue; d: D form. The star is where a group is joined. Phe(3,5-F2) = N[C@@H](Cc1cc(F)cc(F)c1)C(=O)O; Pro(4R-Me) = C[C@H]1CN[C@H](C(=O)O)C1; aThr = C[C@H](O)[C@H](N)C(=O)O; Pip = O=C(O)[C@@H]1CCCCN1; X10 = Fc1cc(C2CC2)ccc1N*; CO = O=C([*:1])[*:2]

With `Cc1cc(N=C2NC(=O)S/C2=C\c2ccc(F)cc2)n[nH]1`, the GI50 is 5.33 µM in the experiment with DU-145 prostate; 4.48 µM in the experiment with SF-268 CNS; 2.9 µM with NCI-H226 lung; 3.13 µM in the experiment on NCI-H460 lung; 2.95 µM in the experiment on MDA-MB-231 breast; 3.32 µM in the experiment with K-562 leukemia. Further, the GI50 with IGROV1 ovarian was 2.59 µM; with HOP-62 NSCLC, 2.59 µM; with MALME-3M melanoma it was 3.47 µM; with NCI-H522 lung, 2.57 µM; in the experiment on OVCAR-5 ovarian, 3.65 µM; in the experiment on ACHN renal it was 3.36 µM. Moreover, the GI50 in the experiment on T-47D breast is 2.58 µM; in the experiment with HCC-2998 colon, 3.67 µM; in the experiment on SNB-19 CNS it was 3.2 µM; in the experiment on 786-0 renal, 3.01 µM; with UO-31 renal, 2.33 µM; with SNB-75 CNS, 2.12 µM. Further, the GI50 was 2.27 µM in the experiment with RPMI-8226 leukemia; 2.35 µM in the experiment with U251 CNS; 4.09 µM in the experiment on HT29 colon; 2.84 µM in the experiment with SF-539 CNS; 3.37 µM in the experiment on PC-3 prostate; 2.69 µM in the experiment on EKVX NSCLC. Moreover, the GI50 in the experiment on MOLT-4 leukemia was 2.93 µM; in the experiment on UACC-257 melanoma, 2.82 µM; in the experiment on HL-60(TB) leukemia it was 3.3 µM; in the experiment with MDA-MB-435 it was 3 µM; with KM12 colon, 4.13 µM; with M14 melanoma it was 2.63 µM. Moreover, the GI50 with SR leukemia was 2.35 µM; in the experiment on SF-295 CNS, 2.79 µM; with CAKI-1 renal, 3.81 µM; in the experiment with HOP-92 NSCLC it was 2.62 µM; in the experiment on A549 NSCLC it was 3.07 µM; with SW-620 colon, 3.92 µM. The GI50 was 3.85 µM in the experiment with OVCAR-4 ovarian; 2.47 µM in the experiment on HCT-15 colon; 3.63 µM in the experiment on NCI-H23 lung; 2.76 µM in the experiment with OVCAR-8 ovarian; 3.13 µM in the experiment with OVCAR-3 ovarian; 3.16 µM in the experiment with SK-MEL-5 melanoma. In addition, the GI50 in the experiment with MCF7 breast is 2.36 µM; with SN12C renal it was 3.81 µM. The TGI in the experiment on DU-145 prostate, in the experiment with SF-268 CNS, in the experiment with NCI-H226 lung, in the experiment on NCI-H460 lung, in the experiment with MDA-MB-231 breast and with K-562 leukemia was > 100 µM each time. Also, the TGI in the experiment with IGROV1 ovarian, in the experiment with HOP-62 NSCLC, in the experiment with MALME-3M melanoma, in the experiment with NCI-H522 lung, in the experiment with OVCAR-5 ovarian and in the experiment on ACHN renal was > 100 µM throughout. Further, the TGI in the experiment with T-47D breast, with HCC-2998 colon, with SNB-19 CNS, with 786-0 renal, in the experiment with UO-31 renal and in the experiment on SNB-75 CNS was > 100 µM in each case. Further, the TGI was 6.34 µM with RPMI-8226 leukemia; > 100 µM in the experiment on U251 CNS; > 100 µM in the experiment with HT29 colon; > 100 µM in the experiment on SF-539 CNS; > 100 µM with PC-3 prostate; > 100 µM with EKVX NSCLC. The TGI in the experiment with MOLT-4 leukemia, with UACC-257 melanoma, with HL-60(TB) leukemia, in the experiment on MDA-MB-435, in the experiment with KM12 colon and with M14 melanoma was > 100 µM throughout. Moreover, the TGI with SR leukemia, with SF-295 CNS, with CAKI-1 renal, in the experiment on HOP-92 NSCLC, with A549 NSCLC and in the experiment with SW-620 colon was > 100 µM in each case. Moreover, the TGI with OVCAR-4 ovarian, with HCT-15 colon, in the experiment with NCI-H23 lung, with OVCAR-8 ovarian, in the experiment with OVCAR-3 ovarian and in the experiment on SK-MEL-5 melanoma was > 100 µM throughout. In addition, the TGI with MCF7 breast and in the experiment with SN12C renal was > 100 µM throughout.

In the case of `C[C@@H]1C[C@H]2C(=O)O[C@@H](C)[C@H](NC(=O)[C@H](Cc3cc(F)cc(F)c3)NC(=O)Nc3ccc(C4CC4)cc3F)C(=O)N3CCC[C@H]3C(=O)N3CCCC[C@H]3C(=O)N[C@@H](C)C(=O)N2C1` ({X10-CO}-[Phe(3,5-F2)][aThr]P[Pip]A[Pro(4R-Me)]; ester 2-C), in the experiment with MDA-MB-468 breast, the GI50 is 0.0257 µM and the TGI is 0.187 µM.

`Cc1ccc2c(C)c3c(ccc4ccccc43)c[n+]2c1`: in the experiment on MDA-MB-468 breast, the GI50 is 0.408 µM and the TGI was 2.24 µM.

In the case of `O=C(Nc1ccc(-n2ccc3c(NC(=O)c4ccccc4)nccc32)cc1)c1ccc(Cl)c(C(F)(F)F)c1`, in the experiment with MDA-MB-468 breast, the GI50 was 0.919 µM and the TGI came to 5.65 µM.

In the case of `OCc1cc2ccccc2c2c3c(ccc12)OCO3`, in the experiment with MDA-MB-468 breast, the GI50 was 18.9 µM and the TGI stood at 65.1 µM.

Consider `COc1ccc2c(c1)sc1nc(-c3ccccc3)c(-c3cccc4ccccc34)n12`, for which, in the experiment with MDA-MB-468 breast, the GI50 is 1.47 µM and the TGI stood at 5.05 µM.

Regarding `COc1cnc2c(c1)C(=O)c1c-2n(CCCN2CCOCC2)c(=O)c2cc(F)ccc12`, in the experiment with MDA-MB-468 breast, the GI50 is 0.195 µM and the TGI was 0.656 µM.

`OC1CSSC1Cn1cnc2c(Nc3ccc(OCc4cccc(F)c4)c(Cl)c3)ncnc21` (stereo unspecified): in the experiment on MDA-MB-468 breast, the GI50 was 0.786 µM and the TGI is 2.12 µM.

Regarding `O=C1NC(=NCCc2cccc(F)c2)S/C1=C\c1ccc2ncccc2c1`, in the experiment on MDA-MB-468 breast, the GI50 was 1.18 µM and the TGI is > 20.4 µM.

In the case of `Cc1ccc(NC(=O)Nc2ccc(-c3cccnc3)cc2N2CCC(CO)CC2)cc1`, in the experiment on MDA-MB-468 breast, the GI50 was 2.49 µM and the TGI was 7.12 µM.
